Calls of active or inactive are those of the source. The rule behind the calls is not given here.
Key:
Mus musculus [1] = test: Antiinflammatory activity in Aggregatibacter actinomycetemcomitans infected Balb/c mouse model assessed as inhibition of TNFalpha production at 100 mg/kg, sc for 15 days post Aggregatibacter actinomycetemcomitans-challenge by ELISA; assay type: functional, organism-based; parameters: dose 100 mg/kg
Mus musculus [2] = test: Antiperiodontitic activity in Aggregatibacter actinomycetemcomitans infected Balb/c mouse model assessed as downregulation of ICAM-1 expression at 100 mg/kg, sc for 15 days post Aggregatibacter actinomycetemcomitans-challenge by Western blotting analysis; assay type: functional, organism-based; parameters: dose 100 mg/kg
[3] = system: Aggregatibacter actinomycetemcomitans; test: Antimicrobial activity against Aggregatibacter actinomycetemcomitans infected in Balb/c mouse measured per 10^6 colonies at 100 mg/kg, sc measured 14 days post-infection by Gram staining technique (reference value: 6.41 +/- 0.96); assay type: functional; conditions: route subcutaneous
Mus musculus [4] = test: Antiperiodontitic activity in Aggregatibacter actinomycetemcomitans infected Balb/c mouse model assessed as downregulation of RANKL expression at 100 mg/kg, sc for 15 days post Aggregatibacter actinomycetemcomitans-challenge by Western blotting analysis; assay type: functional, organism-based; parameters: dose 100 mg/kg
Mus musculus [5] = test: Antiinflammatory activity in Aggregatibacter actinomycetemcomitans infected Balb/c mouse model assessed as inhibition of IL-1beta production at 100 mg/kg, sc for 15 days post Aggregatibacter actinomycetemcomitans-challenge by ELISA; assay type: functional, organism-based; parameters: dose 100 mg/kg
Mus musculus [6] = test: Antiperiodontitic activity in Aggregatibacter actinomycetemcomitans infected Balb/c mouse model assessed as inhibition of alveolar bone loss at 100 mg/kg, sc for 15 days post Aggregatibacter actinomycetemcomitans-challenge by methylene blue staining-based microscopic analysis; assay type: functional, organism-based; parameters: dose 100 mg/kg
Mus musculus [7] = test: Effect on OPG expression in Aggregatibacter actinomycetemcomitans infected Balb/c mouse model at 100 mg/kg, sc for 15 days post Aggregatibacter actinomycetemcomitans-challenge by Western blotting analysis; assay type: ADME, organism-based; parameters: dose 100 mg/kg, route subcutaneous; conditions: in vivo, 360 h
Mus musculus [8] = test: Antiinflammatory activity in Aggregatibacter actinomycetemcomitans infected Balb/c mouse model assessed as inhibition of IL-17 production at 100 mg/kg, sc for 15 days post Aggregatibacter actinomycetemcomitans-challenge by ELISA; assay type: functional, organism-based; parameters: dose 100 mg/kg

With `O=c1c(O)c(-c2ccc(O)c(O)c2)oc2cc(O)cc(O)c12` [QUERCETIN] the inhibition (Mus musculus [1]) was “Active”, the Activity (Mus musculus [2]) was “Active” and the CFU [3] was 5.86. The Activity (Mus musculus [4]) was “Active”, the inhibition (Mus musculus [5]) was “Active” and the inhibition (Mus musculus [6]) was “Active”. For the same compound, the Activity (Mus musculus [7]) was “Non-toxic” and the inhibition (Mus musculus [8]) was “Active”.

— ChEMBL document CHEMBL3091411, “Quercetin inhibits inflammatory bone resorption in a mouse periodontitis model” (J Nat Prod, 2013)
